Measured values reported in patent US20150190523A1, “BIOAVAILABILITY OF ORAL METHYLNALTREXONE INCREASES WITH A PHOSPHATIDYLCHOLINE-BASED FORMULATION” (The University of Chicago, priority 2012, published 2015).

Key:
[1] = white crystalline powder, typically bromide salt, commercially provided; cited from earlier work
[2] = Pharmacokinetics of MNTX in rat plasma after oral gavage (LC/MS/MS); details: male, Sprague-Dawley, in vivo, 250 mg/kg; for AUC(0-t) / Cmax / Tmax: rats, 250 mg/kg oral
Protocol: Animals, MNTX Administration, and Blood Collection.
The experimental protocol was approved by the Institutional Animal Care and Use Committee. Male Sprague-Dawley rats (190-200 g) were obtained from Luye Pharma (Yantai, China) (Wang et al., 2010). Rats were allowed to acclimatize in environmentally controlled quarters (24±2° C. and a 12:12 h light-dark cycle). The rats were fasted for 12 h prior to the experiments.
Ten rats received test compounds via oral gavage. […] Venous blood samples were drawn from the ocular venous plexus at 0, 10, 20, 30, 45, 60, 90, 120, 150, 180, 240, 300, 420 and 540 min. The samples were placed into heparinized tubes and centrifuged at 1500×g for 5 min. The plasma samples were immediately stored in a freezer (−20° C.) for the pending assay.
Plasma Sample Processing.
A […] plasma sample was transferred to a 1.5 mL microcentrifuge tube. Then 0.2 mL of acetonitrile and […] of ketamine hydrochloride (I.S.) were mixed with the plasma sample and vortexed for 5 min before being centrifuged at 1500×g for 5 min. The supernatant was transferred to another tube and dried under a gentle flow of nitrogen. The residue was dissolved in […] of mobile phase, and then centrifuge at 15,000×g for 10 min. Lastly, 5 μL of supernatant was injected into the LC/MS/MS system for analysis.
Determination of MNTX Concentration by LC/MS/MS.
The concentrations of MNTX in rat plasma samples were determined with LC/MS/MS. MNTX plasma levels and the internal standard determined by LC/MS/MS were tested at the time points listed above. The assay was performed using an HPLC system with an Agilent 1100 pump, an Agilent 1100 auto sampler, and a Hanbang C18 column (150 mm×2.1 mm, 5 μm) with a guard column (Wang et al., 2011). For the mobile phase, methanol/water (60/40, containing 0.1% of acetic acid) was pumped at a flow rate of 0.2 mL/min. The samples were stored at 4° C. in the auto sampler before 5 μL was injected into the column. The detector was an API 4000 triple quadruple mass (MS) spectrometer (Applied Biosystems, Foster City, Calif.), and Analyst™ software version 4.1 was used for MS control and spectral processing. Using electrospray ionization (ESI) in positive ion mode, the MS parameters were optimized as follows: heater temperature, 350° C.; ion source voltage, 4000V. Multiple reaction monitoring was used, and the selected single charged precursor-production ion pairs were m/z 356.08→226.95 for MNTX and m/z 237.93→125.05 for ketamine hydrochloride.
Data analysis. Pharmacokinetic data were analyzed by software (Kinetic 4.4; Thermo Electron Co., Waltham. Mass.). All data were expressed as the mean±standard error (S.E.). A one-way ANOVA determined whether the results had statistical significance. The level of statistical significance was set at P<0.05.

## C[N+]1(CC2CC2)CCC23c4c5ccc(O)c4OC2C(=O)CCC3(O)C1C5 (centres unmarked) [MNTX, methylnaltrexone bromide]
[1]
  solubility in water: freely soluble in water
[2]
  AUC: 1060 ng·h/mL
  half-life: 4.32 h
[2]; AUC0-540 min, 0 to 540 min, mean±S.E.
  AUC(0-t): 1410 ± 448 ng·h/mL
[2]; First peak AUC0-150 min, 0 to 150 min, n=5, mean
  AUC(0-t): 341 ± 94.5 ng·h/mL
[2]; First peak Cmax, first plasma peak, n=5, mean
  Cmax: 276 ± 102 ng/mL
[2]; First peak Tmax, first plasma peak
  Tmax: 2 h
[2]; Second peak Cmax, second plasma peak, n=5, mean
  Cmax: 448 ± 126 ng/mL
[2]; Second peak Tmax, second plasma peak
  Tmax: 3 h
[2]; peak plasma concentration (Cmax), overall profile, mean±S.E.
  Cmax: 448 ± 126 ng/mL
[2]; time to peak plasma concentration (Tmax), overall profile
  Tmax: 3 h
